# Results taken from US12055553B2, “Method for diagnosing risk for inflammatory disease through glycan profiling” (The Regents of the University of California, priority 2017, dated 2024).
# Legend:
# Caco-2 cells = assay type: cell-based; details: for change in sialylated glycans / change in fucosylated glycans / fucosylation / increase in abundance of high mannose type N-glycans / increase in abundance of non-decorated complex/hybrid type N-glycans / change in high mannose type glycans / change in non-decorated complex/hybrid type N-glycans / decrease in fucosylated compounds / change in the groups of cell surface glycans presented: Caco-2, 72 h; for change in sialylated glycans / change in fucosylated glycans / fucosylation: fucose 25 mM, butyrate 10 mM; for change in sialylated glycans / change in fucosylated glycans / fucosylation / increase in abundance of high mannose type N-glycans / change in high mannose type glycans / change in non-decorated complex/hybrid type N-glycans: glutamine 10 mM; for decrease in sialylated glycans collectively / increase in fucosylated glycans collectively: GlcNAc 25 mM, cell line not given; for decrease in sialylated glycans collectively / increase in fucosylated glycans collectively / increase in abundance of non-decorated complex/hybrid type N-glycans: GalNAc; for change in fucosylated glycans / fucosylation: acetate, lactate; for fold decrease of Hex6HexNAc6Fuc1NeuAc3 / fold decrease of Hex7HexNAc7Fuc1NeuAc1 / fold increase of Hex6HexNAc6NeuAc1: Caco-2, SCFA 10 mM; for increase in abundance of high mannose type N-glycans / increase in abundance of non-decorated complex/hybrid type N-glycans: fructose 50 mM; for change in high mannose type glycans / change in the groups of cell surface glycans presented: treated vs untreated; for change in high mannose type glycans / decrease in fucosylated compounds: lactose 70 mg/L; for change in non-decorated complex/hybrid type N-glycans: galactose; for decrease in fucosylated compounds: high galactose; for change in the groups of cell surface glycans presented: glucose 25 mM, glutamate 2 mM, glutathione 2 mM
# Procedure: (§1) We examined whether supplementation of free monosacchaides derived from diet changes N-glycosylation outcomes on the intestinal cell-surface at concentrations relevant to physiological conditions. Changes in glycosylation were assessed by globally releasing glycans from membrane proteins extracted from fully differentiated (Caco-2) and partially differentiated (HT-29) intestinal epithelial cells and analyzing the mixture by porous graphitized carbon (PGC)-LC-MS. […] The glycan profile under normal growth conditions was used as a frame of reference with which to compare the glycome at varied environments.
# (§2) Human colorectal adenocarcinoma Caco-2 cells derived from a person, were obtained from American Type Culture Collection (ATCC, VA) and grown in Eagle's Minimum Essential Medium (EMEM) supplemented with non-essential amino acids, 2 mM L-glutamine, 10% (v/v) fetal bovine serum (Life Technologies, NY), 1 mM sodium pyruvate, 1.5 g/L sodium bicarbonate, 100 U/mL penicillin, and 100 μg/mL streptomycin. Alternatively, Caco-2 cells were grown in Dulbecco's Modified Eagle's Medium (DMEM) supplemented with 10% (v/v) fetal bovine serum, 100 U/mL penicillin, and 100 μg/mL streptomycin. Human colorectal adenocarcinoma HT-29 cells, derived from a person, were obtained from ATCC and grown in McCoy's 5A medium supplemented with 10% (v/v) fetal bovine serum, 100 U/mL penicillin, and 100 μg/mL streptomycin. Cells were subcultured at 80% confluency and maintained at 37° C. in a humidified incubator with 5% CO=2. All treatments were added to the media after cell differentiation. Caco-2 cells were fully differentiated 14-days post-confluency. HT-29 cells were partially differentiated 4-days post-confluency. After 72 h, cells were collected in biological triplicates by scraping A fixed count of 2×10^6 viable cells was used for each experiment Passage number between experiments was controlled to no higher than P40 and a delta P of no more than 20. High passage cells were scraped after P80. Media was renewed three times a week unless specified. Monolayer integrity and quality of cell borders were evaluated under the microscope routinely during growth and before harvest.
# (§3) In brief harvested cells were resuspended in homogenization buffer containing 0.25 M sucrose, 20 mM HEPES-KOH (pH 7.4), and 1:100 protease inhibitor (EMD Millipore, CA). Cell lysis was performed on ice using a probe sonicator (Qsonica, CT) with five alternating and on and off pulses in 5 and 10 s intervals, respectively. Lysates were […] at 2,000×g for 10 min to remove the nuclear fraction and cellular debris. The supernatant was collected and brought to 1 mL with homogenization buffer for ultracentrifugation at 200,000×g for 45 min at 4° C. The pallet was resuspended and repelleted by ultracentrifugation in 0.2 M Na2CO3 (pH 11) followed by water to fragment the endoplasmic reticulum and remove the cytoplasmic fraction, respectively. The resulting membrane faction was isolated and stored at −20° C. until further processing.
# (§4) Membrane pellets were resuspended with 100 μL of 100 mM ammonium bicarbonate in 5 mM dithiothreitol and heated for 10 s at 100° C. to thermally denature the proteins. […] After addition of 400 μL of chilled ethanol, samples were placed in −80° C. for 1.5 h and centrifuged for 20 min at 21,130×g to precipitate residual deglycosylated proteins. The supernatant containing the released N-glycans was collected and dried. N-Glycans were purified by solid phase extraction containing a porous graphitized carbon (PGC) matrix. Eluted fractions were dried in vacuo.
# THP-1 cells = assay: Lectin array of THP-1 monocyte cell surface glycan composition after monosaccharide supplementation; assay type: cell-based; details: 3 days
# Procedure: THP-1 cells (monocyte cell line) were incubated with different sugars (i.e. monosaccharides) for 3 days. Lectin arrays were used to detect changes in the cell surface glycan composition. Secreted HDL from the cell supernatant (monocytes secrete their own HDL) was isolated and then analyzed to determine the glycan composition.
# • ConA (Concanavalin A): binds internal and nonreducing terminal α-D-mannosyl (αMan) and α-D-glucosyl groups (αGIc) • JAC (Jacalin): binds galactose-containing O-glycoproteins (Galβ3GalNac) • SNA (Sambucus nigra): binds sialic acid attached to terminal galactose in α-2,6 and to a lesser degree, α-2,3 linkage (Neu5Acα6Gal/GalNac) • AAL (Aleuria auanda lectin): binds fucose linked (α-1,6) to N-acetylglucosamine or to fucose linked (α-1,3) to N-acetyllactosamine related structures, exposed core (α-1, 6) and outer arm (α-1, 2 or α-1, 3) linked fucose moieties. Sugar Treatments: • L-fucose: Tested 2 doses: 300 umol/L (physiologic) and 100 mmol/L. (Marquardt T, Blood, December 15; 94(12):3976-85, 1999): Named L-Fuc Low and L-Fuc High • Fructose: Tested 2 doses: 27 mmol/L (physiologic) and 100 mmol/L. (Hui H, Pancreas, August 38(6): 706-12, 2009); Named Fruc Low and Fruc High • N-acetylglucosamine (GlcNAc): Tested 1 dose: 100 mmol/L. (Villiger TK, Controlling the time evolution of mAb N-finked glycosylation, Part I: Microbioreactor experiments, Biotechnol Prog, September; 32(5):1123-1134, 2016) • Galactose: The two doses for the galactose treatment in the glycan array experiments were: 150 mmol/L and 75 mmol/L. (Villiger TK, Controlling the time evolution of mAb N-linked glycosylation, Part II: Model-based predictions, Biotechnol Prog, September; 32(5):135-1148, 2016)
# HT-29 cells = assay: Cell surface N-glycan profiling (PGC-LC-MS) of HT-29 after supplementation; assay type: cell-based, Human; details: for change in the HT-29 glycome / major groups of glycans / change in fucosylated glycans / change in high mannose type glycans: HT-29, 72 h; for change in the HT-29 glycome / major groups of glycans: acetate, lactate 10 mM, glutathione 2 mM; for change in fucosylated glycans / change in high mannose type glycans: fructose 50 mM, glutamine 10 mM; for change in high mannose type glycans: glutamate 2 mM
# Procedure: as §1, §2, §3, §4
# [1] = cited from earlier work
# [2] = single dose (GlcNAc 100 mmol/L) or dose not distinguished
# [3] = high dose (galactose 150 mmol/L, fructose 100 mmol/L, L-fucose 100 mmol/L)
# [4] = low dose (galactose 75 mmol/L, fructose 27 mmol/L, L-fucose 300 umol/L)
smiles,measurement,setting,value
"CC(=O)N[C@H]1[C@H]([C@H](OC(C)=O)[C@@H](COC(C)=O)OC(C)=O)OC(OC(C)=O)(C(=O)O)C[C@@H]1OC(C)=O (stereo partly drawn) [Ac5-Sia, 2,4,7,8,9-penta-O-acetyl N-acetylneuraminic acid]",change in monofucosylated glycans,"Caco-2 cells; Ac5-Sia up to 10 mM, 72 h",significant increases
same,change in sialylated glycans,Caco-2 cells; Ac5-Sia up to 10 mM,remained relatively unchanged
"CC(=O)N[C@H]1C(O)O[C@H](CO)[C@@H](O)[C@@H]1O (stereo partly drawn) [GlcNAc, N-acetylglucosamine]",AAL binding (fucosylated glycans),THP-1 cells; [2],decreased
same,ConA binding (glucose or mannose-terminated glycans),THP-1 cells; [2],decreased
same,JAC binding (terminal galactose containing glycans),THP-1 cells; [2],decreased
same,SNA binding (terminal sialic acid),THP-1 cells; [2],did not change
same,decrease in sialylated glycans collectively,Caco-2 cells; 72 h,53.9%
same,increase in fucosylated glycans collectively,Caco-2 cells; 72 h,61.2%
CC(O)C(=O)O (stereo not drawn) [lactate],change in fucosylated glycans / fucosylation,Caco-2 cells,significant increase
same,fold decrease of Hex6HexNAc6Fuc1NeuAc3,Caco-2 cells; 72 h,3.7 fold
same,fold decrease of Hex7HexNAc7Fuc1NeuAc1,Caco-2 cells; 72 h,3.4 fold
same,fold increase of Hex6HexNAc6NeuAc1,Caco-2 cells; 72 h,10 fold
same,change in the HT-29 glycome / major groups of glycans,HT-29 cells,minimal effects
O=C(CO)[C@@H](O)[C@H](O)[C@H](O)CO [fructose],AAL binding (fucosylated glycans),THP-1 cells; [3],decreased
same,JAC binding (terminal galactose containing glycans),THP-1 cells; [3],decreased
same,SNA binding (terminal sialic acid),THP-1 cells; [3],no effect
same,AAL binding (fucosylated glycans),THP-1 cells; [4],decreased
same,SNA binding (terminal sialic acid),THP-1 cells; [4],decreased
same,ConA binding (glucose or mannose-terminated glycans),THP-1 cells; [2],decreased
same,increase in abundance of high mannose type N-glycans,Caco-2 cells,511%
same,increase in abundance of non-decorated complex/hybrid type N-glycans,Caco-2 cells,672%
same,"fold increase of each of Hex3HexNAc4Fuc1, Hex4HexNAc5Fuc1, Hex6HexNAc4Fuc1, Hex5HexNAc5Fuc1","Caco-2 cells; Caco-2, fructose 50 mM, 72 h",more than 4 fold
same,change in fucosylated glycans,HT-29 cells,remained unaltered
same,change in high mannose type glycans,HT-29 cells,remained unaltered
"NC(=O)CC[C@H](N)C(=O)O [glutamine, L-glutamine]",change in high mannose type glycans,Caco-2 cells,significant increases
same,increase in abundance of high mannose type N-glycans,Caco-2 cells,507%
same,change in sialylated glycans,Caco-2 cells; Ac5-Sia up to 10 mM,remarkable constancy
same,change in fucosylated glycans / fucosylation,Caco-2 cells,significant increases
same,change in non-decorated complex/hybrid type N-glycans,Caco-2 cells,significant increases
same,fold increase of each of Man 5-Man 9,"Caco-2 cells; Caco-2, glutamine 10 mM, 72 h",more than 6 fold
same,change in fucosylated glycans,HT-29 cells,significant increases
same,change in high mannose type glycans,HT-29 cells,significant increases
same,change in non-decorated complex/hybrid types of glycans,"HT-29 cells; HT-29, glutamine 10 mM, 72 h",significant increases
O=C[C@H](O)[C@@H](O)[C@@H](O)[C@H](O)CO [galactose],AAL binding (fucosylated glycans),THP-1 cells; [3],increased
same,ConA binding (glucose or mannose-terminated glycans),THP-1 cells; [3],increased
same,JAC binding (terminal galactose containing glycans),THP-1 cells; [3],increased
same,SNA binding (terminal sialic acid),THP-1 cells; [3],increased
same,JAC binding (terminal galactose containing glycans),THP-1 cells; [4],decreased
same,SNA binding (terminal sialic acid),THP-1 cells; [4],increased
same,change in high mannose type glycans,Caco-2 cells,significant Increases
same,change in non-decorated complex/hybrid type N-glycans,Caco-2 cells,significant Increases
same,decrease in fucosylated compounds,Caco-2 cells,20%
same,decrease in relative abundances of fucosylated and sialylated glycans,"Caco-2 cells; Caco-2, galactose-treated, 72 h",12-28%
same,afucosylated glycans as share of all complex/hybrid glycans,Caco-2 cells; galactose-treated Caco-2 (untreated 15%),46%
same,asialylated glycans as share of all complex/hybrid glycans,Caco-2 cells; galactose-treated Caco-2 (untreated 23%),58%
N[C@@H](CCC(=O)O)C(=O)O [glutamate],change in the groups of cell surface glycans presented,Caco-2 cells,relatively unaffected
same,change in high mannose type glycans,HT-29 cells,unperturbed
same,decline in fucosylation with respect to the control,"HT-29 cells; HT-29, glutamate 2 mM, 72 h",44.4%
CC(=O)O [acetate],change in fucosylated glycans / fucosylation,Caco-2 cells,significant increase
same,fold decrease of Hex6HexNAc6Fuc1NeuAc3,Caco-2 cells; 72 h,4.7 fold
same,fold decrease of Hex7HexNAc7Fuc1NeuAc1,Caco-2 cells; 72 h,2.7 fold
same,fold increase of Hex6HexNAc6NeuAc1,Caco-2 cells; 72 h,8.1 fold
CCCC(=O)O [butyrate],"fold increase of each of Hex3HexNAc4Fuc1, Hex6HexNAc7Fuc1, Hex7HexNAc7Fuc1","HT-29 cells; HT-29, butyrate 10 mM, 72 h",more than 13 fold
same,increase in fucosylation,"HT-29 cells; HT-29, butyrate 10 mM, 72 h",262%
OC[C@H]1O[C@@H](O[C@H]2[C@H](O)[C@@H](O)C(O)O[C@@H]2CO)[C@H](O)[C@@H](O)[C@H]1O (stereo partly drawn) [lactose],change in high mannose type glycans,Caco-2 cells,did not cause dramatic changes
same,decrease in fucosylated compounds,Caco-2 cells,20%
"CC(=O)N[C@H]1C(O)O[C@H](CO)[C@H](O)[C@@H]1O (stereo partly drawn) [GalNAc, N-acetylgalactosamine]",decrease in sialylated glycans collectively,Caco-2 cells; 72 h,31.9%
same,increase in fucosylated glycans collectively,Caco-2 cells; 72 h,120%
same,increase in abundance of non-decorated complex/hybrid type N-glycans,Caco-2 cells,234%
same,fold increase of Hex3HexNAc4Fuc1,"Caco-2 cells; GalNAc supplementation, 72 h",13 fold
same,fold increase of Hex3HexNAc5Fuc1,"Caco-2 cells; GalNAc supplementation, 72 h",7 fold
N[C@@H](CCC(=O)N[C@@H](CS)C(=O)NCC(=O)O)C(=O)O [glutathione],change in the groups of cell surface glycans presented,Caco-2 cells,essentially unaltered
same,change in the HT-29 glycome / major groups of glycans,HT-29 cells,essentially unaltered
same,increase in high mannose type glycans,"HT-29 cells; HT-29, glutathione 2 mM, 72 h",37.1%
CC(=O)N[C@H]1[C@H]([C@H](O)[C@H](O)CO)OC(O)(C(=O)O)C[C@@H]1O (stereo partly drawn) [sialic acid],pKa,[1],2.6
"C[C@H](O)[C@@H](O)[C@@H](O)[C@H](O)C=O [fucose, L-fucose]",AAL binding (fucosylated glycans),THP-1 cells; [3],decreased
same,ConA binding (glucose or mannose-terminated glycans),THP-1 cells; [3],decreased
same,JAC binding (terminal galactose containing glycans),THP-1 cells; [3],decreased
same,SNA binding (terminal sialic acid),THP-1 cells; [3],increased
same,AAL binding (fucosylated glycans),THP-1 cells; [4],decreased
same,ConA binding (glucose or mannose-terminated glycans),THP-1 cells; [4],decreased
same,JAC binding (terminal galactose containing glycans),THP-1 cells; [4],decreased
same,SNA binding (terminal sialic acid),THP-1 cells; [4],increased
same,change in sialylated glycans,Caco-2 cells; Ac5-Sia up to 10 mM,overall decrease
same,change in fucosylated glycans / fucosylation,Caco-2 cells,neither the total levels nor the degree of fucosylation deviated significantly
